pEC50: −log10 of the molar value.
Legend:
[1] = target: T1, human TLR7 (wild type sequence) (Homo sapiens, UniProt Q9NYK1); assay: TLR7 cellular NFκB-luc reporter assay, wild type TLR7; type: cell-based; set-up: unit not given here; conditions: lowest effective concentration, wild type TLR7 (compounds 74 onward)
T1 construct: expressed in transfected cells; host or cells: HEK293
T1 sequence (Q9NYK1 27-1049): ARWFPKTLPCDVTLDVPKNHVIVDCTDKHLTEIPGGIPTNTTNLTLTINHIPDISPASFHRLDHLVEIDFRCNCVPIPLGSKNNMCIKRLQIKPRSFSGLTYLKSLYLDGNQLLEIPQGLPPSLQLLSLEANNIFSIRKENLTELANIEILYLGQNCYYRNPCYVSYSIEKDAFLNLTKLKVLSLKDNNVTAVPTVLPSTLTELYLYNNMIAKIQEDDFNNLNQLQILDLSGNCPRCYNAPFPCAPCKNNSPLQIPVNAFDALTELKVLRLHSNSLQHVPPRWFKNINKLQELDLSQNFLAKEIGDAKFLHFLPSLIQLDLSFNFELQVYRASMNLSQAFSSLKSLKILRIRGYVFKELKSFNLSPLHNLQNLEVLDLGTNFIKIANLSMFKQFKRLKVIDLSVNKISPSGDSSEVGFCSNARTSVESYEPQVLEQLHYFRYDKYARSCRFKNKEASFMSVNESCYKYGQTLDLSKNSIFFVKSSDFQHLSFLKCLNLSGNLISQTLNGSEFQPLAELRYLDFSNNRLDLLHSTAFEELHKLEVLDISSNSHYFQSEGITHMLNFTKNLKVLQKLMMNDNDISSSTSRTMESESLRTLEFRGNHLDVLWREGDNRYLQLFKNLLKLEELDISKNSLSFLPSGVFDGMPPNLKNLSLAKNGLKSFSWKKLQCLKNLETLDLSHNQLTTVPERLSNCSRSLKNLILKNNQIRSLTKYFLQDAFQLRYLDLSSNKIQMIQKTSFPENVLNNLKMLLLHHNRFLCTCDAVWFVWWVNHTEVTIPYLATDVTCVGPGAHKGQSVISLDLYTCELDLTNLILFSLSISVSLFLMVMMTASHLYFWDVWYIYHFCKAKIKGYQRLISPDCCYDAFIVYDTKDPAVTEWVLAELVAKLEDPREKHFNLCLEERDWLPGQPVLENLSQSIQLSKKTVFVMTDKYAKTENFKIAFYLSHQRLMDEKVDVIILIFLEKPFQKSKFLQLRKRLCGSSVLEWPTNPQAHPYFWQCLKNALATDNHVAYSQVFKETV
Method in brief: (§1)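 Luciferase signal read after 6 h compound incubation at 37 °C in HEK293 cells carrying transiently transfected TLR7 or TLR8 (wild type or LRR2-deletion) and NFκB-luc. Values are lowest effective concentrations from quadruplicate dose-response curves, effect ≥2-fold above assay SD.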

[2] = target: T2, human TLR8 (wild type sequence) (Homo sapiens, UniProt Q9NR97); assay: TLR8 cellular NFκB-luc reporter assay, wild type TLR8; type: cell-based; set-up: unit not given here; conditions: lowest effective concentration; for TLR 8 wt LEC: wild type TLR8 (compounds 74 onward); for TLR8-wt_LEC: wild type TLR8 (compounds 1-73)
T2 construct: expressed in transfected cells; host or cells: HEK293
T2 sequence (Q9NR97 27-1041): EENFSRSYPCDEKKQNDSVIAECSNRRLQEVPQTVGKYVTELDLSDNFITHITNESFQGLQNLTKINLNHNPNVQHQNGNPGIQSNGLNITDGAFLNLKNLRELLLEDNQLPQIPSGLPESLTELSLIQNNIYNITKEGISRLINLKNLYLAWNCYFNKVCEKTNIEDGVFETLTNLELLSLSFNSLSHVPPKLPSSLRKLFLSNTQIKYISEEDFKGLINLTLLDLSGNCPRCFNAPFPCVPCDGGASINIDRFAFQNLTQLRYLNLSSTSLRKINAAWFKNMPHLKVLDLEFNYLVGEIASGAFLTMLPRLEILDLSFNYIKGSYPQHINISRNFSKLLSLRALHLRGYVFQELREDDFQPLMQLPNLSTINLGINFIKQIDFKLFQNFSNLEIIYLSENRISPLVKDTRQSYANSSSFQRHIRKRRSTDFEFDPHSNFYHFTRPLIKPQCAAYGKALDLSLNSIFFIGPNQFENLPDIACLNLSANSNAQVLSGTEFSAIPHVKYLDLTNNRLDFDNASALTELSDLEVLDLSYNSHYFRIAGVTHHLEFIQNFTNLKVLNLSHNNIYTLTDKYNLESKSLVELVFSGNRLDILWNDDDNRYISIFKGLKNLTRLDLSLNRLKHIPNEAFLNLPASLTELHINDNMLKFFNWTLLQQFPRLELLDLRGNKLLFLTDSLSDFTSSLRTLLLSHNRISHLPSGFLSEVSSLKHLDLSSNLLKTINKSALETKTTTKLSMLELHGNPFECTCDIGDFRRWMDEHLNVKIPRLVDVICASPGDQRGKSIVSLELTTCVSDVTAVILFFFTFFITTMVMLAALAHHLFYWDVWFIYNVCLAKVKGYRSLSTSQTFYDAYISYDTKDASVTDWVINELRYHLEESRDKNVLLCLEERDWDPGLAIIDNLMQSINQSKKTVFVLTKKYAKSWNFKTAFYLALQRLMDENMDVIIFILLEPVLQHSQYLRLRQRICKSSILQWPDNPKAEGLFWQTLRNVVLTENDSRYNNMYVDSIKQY
Method in brief: as §1

[3] = tested on: interferon-stimulated responsive elements (ISRE) in HEK-ISREluc cells; assay: Activation of ISRE promoter elements by conditioned media from compound-treated PBMC; type: cell-based, human; set-up: unit not given here; conditions: conditioned media from compound-treated PBMC on HEK-ISREluc cells
Method: The potential of compounds to induce IFN-I was also evaluated by measuring the activation of interferon-stimulated responsive elements (ISRE) by conditioned media from PBMC. […] The plasmid pISRE-Luc from Clontech (ref. 631913) contains 5 copies of this ISRE element, followed by the firefly luciferase ORF. A HEK293 cell line stably transfected with pISRE-Luc (HEK-ISREluc) was established to profile of the conditioned PBMC cell culture media.
Briefly, PBMCs were prepared from buffy coats of at least two donors using a standard Ficoll centrifugation protocol. Isolated PBMCs were resuspended in RPMI medium supplemented with 10% human AB serum and 2×10^5 cells/well were dispensed into 384-well plates containing compounds (70 μL total volume). After overnight incubation, 10 μL of supernatant was transferred to 384-well plates containing 5×10^3 HEK-ISREluc cells/well in 30 μL (plated the day before). Following 24 hours of incubation, activation of the ISRE elements was measured by assaying luciferase activity using 40 μL/well Steady Lite Plus substrate (Perkin Elmer) and measured with ViewLux ultraHTS microplate imager (Perkin Elmer). The stimulating activity of each compound on the HEK-ISREluc cells was reported as LEC value, defined as the compound concentration applied to the PBMCs resulting in a luciferase activity at least two fold above the standard deviation of the assay. The LEC in turn indicates the degree of ISRE activation on transfer of a defined amount of PBMC culture medium. Recombinant interferon α-2a (Roferon-A) was used as a standard control compound.
For a given compound, the LEC value obtained from this assay were in the same range as the EC50 values obtained from the “suppression of HCV replication assay.” Thus, it is possible to compare the potential of compounds to induce IFN-I by PBMC, measured by either of the 2 assays.

[4] = tested on: human TLR7 mutant sequence comprising a deletion in the second leucine-rich repeat; assay: TLR7 cellular NFκB-luc reporter assay, mutant TLR7 with deletion in the second leucine-rich repeat; type: cell-based; set-up: unit not given here; conditions: lowest effective concentration, TLR7 mutant with deletion in second leucine-rich repeat
Method in brief: (§2)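 HEK293 cells transiently co-transfected with CMV-driven mutant TLR7 or TLR8 plasmid plus NFκB-luc reporter, cultured 48 h at 37 °C, then exposed to compound for 6 h at 37 °C, 5% CO2. Luciferase luminescence measured; dose-response curves from quadruplicates.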

[5] = tested on: human TLR8 mutant sequence comprising a deletion in the second leucine-rich repeat; assay: TLR8 cellular NFκB-luc reporter assay, mutant TLR8 with deletion in the second leucine-rich repeat; type: cell-based; set-up: unit not given here; conditions: lowest effective concentration, TLR8 mutant with deletion in second leucine-rich repeat
Method in brief: as §2

[6] = tested on: HCV replicon in Huh-7 luc/neo cells; assay: Suppression of HCV replicon replication by conditioned media from compound-treated PBMC; type: cell-based, HCV type 1 b; conditions: Hepatitis C virus, Huh-7; read-out: PBMC-HUH7_EC50
Method in brief: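 Readout is firefly luciferase from an HCV genotype 1b NS3-NS5B bicistronic replicon in Huh-7 cells, measured 24 h after adding conditioned medium. That medium came from overnight culture of compound-treated PBMC (2×10^5/well, human AB serum, at least two donors). Interferon α-2a was the reference.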

SMILES	TLR 7 wt LEC [1]	TLR 8 wt LEC [2]	HEK-ISREluc LEC [3]	TLR7-dIRR2_LEC [4]	TLR8-wt_LEC [2]	TLR8-dIRR2_LEC [5]	pEC50 [6]
CCC[C@@H](CCO)Nc1nc(N)ncc1OCc1[nH]ccc(=O)c1OC [Compound 88]	–	–	0.050	–	–	–	–
CCCCNc1nc(N)ncc1OCc1occ(C(=O)OC)c1C(=O)OC [Compound 49]	–	–	–	0.31	3.72	2.07	6.26
CCCCNc1nc(N)ncc1OCc1ccc(C(=O)OCC)o1 [Compound 46]	–	–	–	0.19	3.85	1.96	5.60
CCCCNc1nc(N)ncc1OCc1cncn1C(C)c1ccccc1 (stereo not drawn) [Compound 37]	–	–	–	0.04	9.22	5.69	6.92
CCCCNc1nc(N)ncc1OCCCc1ccc(OC)cc1 [Compound 2]	–	–	–	0.02	1.34	0.31	7.40
CCCCNc1nc(N)ncc1OCc1cn2ccccc2n1 [Compound 34]	–	–	–	0.06	0.83	0.61	7.30

More lines, main results first:

TLR 7 wt LEC [1]	TLR 8 wt LEC [2]	SMILES	HEK-ISREluc LEC [3]	TLR7-dIRR2_LEC [4]	TLR8-wt_LEC [2]	TLR8-dIRR2_LEC [5]	pEC50 [6]
0.449	0.623	CCCCNc1nc(N)ncc1OCc1cccc(CO)c1 [Compound 77]	0.137	–	–	–	–
0.560	0.041	CCCC[C@@H](CO)Nc1nc(N)ncc1OCc1cccc(C(N)=O)n1 [Compound 80]	0.027	–	–	–	–
1.670	6.670	CCCC[C@@H](CCOC(=O)NCC)Nc1nc(N)ncc1OC [Compound 89]	0.526	–	–	–	–
0.101	0.429	CCCC[C@@H](CCO)Nc1nc(N)ncc1OCc1cc(C)nn1C [Compound 81]	0.086	–	–	–	–
1.620	0.329	CCCC[C@@H](CO)Nc1nc(N)ncc1OCc1cc(C)nn1C [Compound 79]	0.235	–	–	–	–
0.021	0.055	CCC[C@@H](CO)Nc1nc(N)ncc1OCc1ncc(C)c(OC)c1C [Compound 76]	0.008	–	–	–	–
0.646	3.750	CCCCNc1nc(N)ncc1OCc1c[nH]nn1 [Compound 86]	0.131	–	–	–	–

From patent US11541050B2, “Pyrimidine derivatives for the treatment of viral infections” (JANSSEN SCIENCES IRELAND UC, priority 2011, dated 2023)
